Reference: article PMC7914897, “Cytotoxic Potential of a-Azepano- and 3-Amino-3,4-SeCo-Triterpenoids” (International Journal of Molecular Sciences, 2021)

Columns and labels:
K-562 (Leukemia) = assay: NCI-60 screen (SRB, 48 h); settings: Homo sapiens
Ovarian Cancer subpanel = assay: NCI-60 screen, subpanel; settings: Homo sapiens
COLO 205 (Colon cancer) = assay: NCI-60 screen (SRB, 48 h); settings: Homo sapiens
[1] = system: NCI/ADR-RES (Ovarian cancer); assay: NCI-60 screen (SRB, 48 h); settings: Homo sapiens
EKVX (NSC lung cancer) = assay: NCI-60 screen (SRB, 48 h); settings: Homo sapiens
HCT-15 (Colon cancer) = assay: NCI-60 screen (SRB, 48 h); settings: Homo sapiens
DU-145 (Prostate cancer) = assay: NCI-60 screen (SRB, 48 h); settings: Homo sapiens
SN12C (Renal cancer) = assay: NCI-60 screen (SRB, 48 h); settings: Homo sapiens
UACC-62 (Melanoma) = assay: NCI-60 screen (SRB, 48 h); settings: Homo sapiens
T-47D (Breast cancer) = assay: NCI-60 screen (SRB, 48 h); settings: Homo sapiens, T47D
MALME-3M (Melanoma) = assay: NCI-60 screen (SRB, 48 h); settings: Homo sapiens
SW-620 (Colon cancer) = assay: NCI-60 screen (SRB, 48 h); settings: Homo sapiens
OVCAR-8 (Ovarian cancer) = assay: NCI-60 screen (SRB, 48 h); settings: Homo sapiens
SK-MEL-28 (Melanoma) = assay: NCI-60 screen (SRB, 48 h); settings: Homo sapiens
ACHN (Renal cancer) = assay: NCI-60 screen (SRB, 48 h); settings: Homo sapiens
UO-31 (Renal cancer) = assay: NCI-60 screen (SRB, 48 h); settings: Homo sapiens
HS 578T (Breast cancer) = assay: NCI-60 screen (SRB, 48 h); settings: Homo sapiens
SF-295 (CNS cancer) = assay: NCI-60 screen (SRB, 48 h); settings: Homo sapiens
HOP-92 (NSC lung cancer) = assay: NCI-60 screen (SRB, 48 h); settings: Homo sapiens
[2] = system: A549/ATCC (NSC lung cancer); assay: NCI-60 screen (SRB, 48 h); settings: Homo sapiens
HOP-62 (NSC lung cancer) = assay: NCI-60 screen (SRB, 48 h); settings: Homo sapiens
MCF7 (Breast cancer) = assay: NCI-60 screen (SRB, 48 h); settings: Homo sapiens
SK-MEL-2 (Melanoma) = assay: NCI-60 screen (SRB, 48 h); settings: Homo sapiens
Prostate cancer subpanel = assay: NCI-60 screen, subpanel; settings: Homo sapiens
M14 (Melanoma) = assay: NCI-60 screen (SRB, 48 h); settings: Homo sapiens
[3] = system: NCI-H23 (NSC lung cancer); assay: NCI-60 screen (SRB, 48 h); settings: Homo sapiens
SNB-19 (CNS cancer) = assay: NCI-60 screen (SRB, 48 h); settings: Homo sapiens
Renal Cancer subpanel = assay: NCI-60 screen, subpanel; settings: Homo sapiens

CC1(C)CC[C@]23CC[C@]4(C)[C@H](CC[C@@H]5[C@@]6(C)CCCNC(C)(C)[C@@H]6CC[C@]54C)[C@H]2[C@H]1OC3 [Compound 7, Azepanoallobetulin]
GI50 (K-562 (Leukemia); K562): 1.96 µM | IC (TGI) (K-562 (Leukemia); K562, 48 h, read-out: TGI): 7 µM | CC50 (K-562 (Leukemia); K562, read-out: LC50): > 100 µM | IC (TGI) (Ovarian Cancer subpanel; 48 h, read-out: TGI MG_MID): 3.99 µM | GI50 (Ovarian Cancer subpanel; read-out: GI50 MG_MID): 1.86 µM | CC50 (Ovarian Cancer subpanel; read-out: LC50 MG_MID): 12.3 µM | GI50 (COLO 205 (Colon cancer); COLO 205): 1.28 µM | IC (TGI) (COLO 205 (Colon cancer); COLO 205, 48 h, read-out: TGI): 2.68 µM | CC50 (COLO 205 (Colon cancer); COLO 205, read-out: LC50): 5.61 µM | GI50 [1]: 1.78 µM | IC (TGI) ([1]; 48 h, read-out: TGI): 3.59 µM | GI50 (EKVX (NSC lung cancer)): 1.68 µM | IC (TGI) (EKVX (NSC lung cancer); 48 h, read-out: TGI): 3.37 µM | CC50 (EKVX (NSC lung cancer); read-out: LC50): 6.77 µM | GI50 (HCT-15 (Colon cancer); HCT-15): 1.31 µM | IC (TGI) (HCT-15 (Colon cancer); HCT-15, 48 h, read-out: TGI): 2.68 µM | CC50 (HCT-15 (Colon cancer); HCT-15, read-out: LC50): 5.47 µM | GI50 (DU-145 (Prostate cancer); DU-145): 1.74 µM | IC (TGI) (DU-145 (Prostate cancer); DU-145, 48 h, read-out: TGI): 3.23 µM | CC50 (DU-145 (Prostate cancer); DU-145, read-out: LC50): 6 µM | GI50 (SN12C (Renal cancer)): 1.68 µM | IC (TGI) (SN12C (Renal cancer); 48 h, read-out: TGI): 3.2 µM | CC50 (SN12C (Renal cancer); read-out: LC50): 6.1 µM | GI50 (UACC-62 (Melanoma); UACC-62): 1.79 µM | IC (TGI) (UACC-62 (Melanoma); UACC-62, 48 h, read-out: TGI): 3.21 µM | CC50 (UACC-62 (Melanoma); UACC-62, read-out: LC50): 5.77 µM | GI50 (T-47D (Breast cancer)): 1.71 µM | IC (TGI) (T-47D (Breast cancer); 48 h, read-out: TGI): 3.69 µM | CC50 (T-47D (Breast cancer); read-out: LC50): 7.99 µM | GI50 (MALME-3M (Melanoma)): 1.79 µM | IC (TGI) (MALME-3M (Melanoma); 48 h, read-out: TGI): 3.47 µM | CC50 (MALME-3M (Melanoma); read-out: LC50): 6.72 µM | GI50 (SW-620 (Colon cancer); SW-620): 1.75 µM | IC (TGI) (SW-620 (Colon cancer); SW-620, 48 h, read-out: TGI): 3.49 µM | CC50 (SW-620 (Colon cancer); SW-620, read-out: LC50): 6.95 µM | GI50 (OVCAR-8 (Ovarian cancer); OVCAR-8): 1.87 µM | IC (TGI) (OVCAR-8 (Ovarian cancer); OVCAR-8, 48 h, read-out: TGI): 3.66 µM | GI50 (SK-MEL-28 (Melanoma); SK-MEL-28): 1.66 µM | IC (TGI) (SK-MEL-28 (Melanoma); SK-MEL-28, 48 h, read-out: TGI): 3.18 µM | CC50 (SK-MEL-28 (Melanoma); SK-MEL-28, read-out: LC50): 6.07 µM | GI50 (ACHN (Renal cancer)): 1.71 µM | IC (TGI) (ACHN (Renal cancer); 48 h, read-out: TGI): 3.08 µM | CC50 (ACHN (Renal cancer); read-out: LC50): 5.55 µM | GI50 (UO-31 (Renal cancer); UO-31): 1.56 µM | IC (TGI) (UO-31 (Renal cancer); UO-31, 48 h, read-out: TGI): 3 µM | CC50 (UO-31 (Renal cancer); UO-31, read-out: LC50): 5.77 µM | GI50 (HS 578T (Breast cancer)): 1.96 µM | IC (TGI) (HS 578T (Breast cancer); 48 h, read-out: TGI): 4.69 µM | CC50 (HS 578T (Breast cancer); read-out: LC50): 2.44 µM | GI50 (SF-295 (CNS cancer); SF-295): 1.7 µM | IC (TGI) (SF-295 (CNS cancer); SF-295, 48 h, read-out: TGI): 3.19 µM | CC50 (SF-295 (CNS cancer); SF-295, read-out: LC50): 5.99 µM | GI50 (HOP-92 (NSC lung cancer); HOP-92): 1.41 µM | IC (TGI) (HOP-92 (NSC lung cancer); HOP-92, 48 h, read-out: TGI): 2.96 µM | GI50 ([2]; A549): 1.81 µM | IC (TGI) ([2]; A549, 48 h, read-out: TGI): 3.43 µM | CC50 ([2]; A549, read-out: LC50): 6.5 µM | GI50 (HOP-62 (NSC lung cancer); HOP-62): 1.91 µM | IC (TGI) (HOP-62 (NSC lung cancer); HOP-62, 48 h, read-out: TGI): 3.75 µM | CC50 (HOP-62 (NSC lung cancer); HOP-62, read-out: LC50): 7.34 µM | GI50 (MCF7 (Breast cancer); MCF7): 1.44 µM | IC (TGI) (MCF7 (Breast cancer); MCF7, 48 h, read-out: TGI): 3.01 µM | CC50 (MCF7 (Breast cancer); MCF7, read-out: LC50): 6.3 µM | GI50 (SK-MEL-2 (Melanoma); SK-MEL-2): 1.95 µM | IC (TGI) (SK-MEL-2 (Melanoma); SK-MEL-2, 48 h, read-out: TGI): 4.09 µM | CC50 (SK-MEL-2 (Melanoma); SK-MEL-2, read-out: LC50): 8.57 µM | IC (TGI) (Prostate cancer subpanel; 48 h, read-out: TGI MG_MID): 3.2 µM | GI50 (Prostate cancer subpanel; read-out: GI50 MG_MID): 1.67 µM | CC50 (Prostate cancer subpanel; read-out: LC50 MG_MID): 6.12 µM | GI50 (M14 (Melanoma); M14): 1.77 µM | IC (TGI) (M14 (Melanoma); M14, 48 h, read-out: TGI): 3.31 µM | CC50 (M14 (Melanoma); M14, read-out: LC50): 6.19 µM | GI50 ([3]; NCI-H23): 1.76 µM | IC (TGI) ([3]; NCI-H23, 48 h, read-out: TGI): 3.5 µM | CC50 ([3]; NCI-H23, read-out: LC50): 6.95 µM | GI50 (SNB-19 (CNS cancer); SNB-19): 1.85 µM | IC (TGI) (SNB-19 (CNS cancer); SNB-19, 48 h, read-out: TGI): 3.35 µM | CC50 (SNB-19 (CNS cancer); SNB-19, read-out: LC50): 6.07 µM | IC (TGI) (Renal Cancer subpanel; 48 h, read-out: TGI MG_MID): 3.22 µM | GI50 (Renal Cancer subpanel; read-out: GI50 MG_MID): 1.67 µM | CC50 (Renal Cancer subpanel; read-out: LC50 MG_MID): 6.21 µM
